Laboratory results published in article PMC9386326, “Dysregulated glucuronic acid metabolism exacerbates hepatocellular carcinoma progression and metastasis through the TGFβ signalling pathway” (Clinical and Translational Medicine, 2022).

Molecular target: T1, PTBP3 (Homo sapiens, UniProt O95758)
T1 construct: endogenous full-length protein in human hepatoma (Huh7) cells / cell lysates
Experiment: CETSA (cell lysate, immunoblot) and DARTS (pronase)
Assay type: biochemical
Conditions: endogenous PTBP3 in Huh7 cells / lysates; stabilisation, authors call it potential direct binding

T1 sequence (O95758 whole entry): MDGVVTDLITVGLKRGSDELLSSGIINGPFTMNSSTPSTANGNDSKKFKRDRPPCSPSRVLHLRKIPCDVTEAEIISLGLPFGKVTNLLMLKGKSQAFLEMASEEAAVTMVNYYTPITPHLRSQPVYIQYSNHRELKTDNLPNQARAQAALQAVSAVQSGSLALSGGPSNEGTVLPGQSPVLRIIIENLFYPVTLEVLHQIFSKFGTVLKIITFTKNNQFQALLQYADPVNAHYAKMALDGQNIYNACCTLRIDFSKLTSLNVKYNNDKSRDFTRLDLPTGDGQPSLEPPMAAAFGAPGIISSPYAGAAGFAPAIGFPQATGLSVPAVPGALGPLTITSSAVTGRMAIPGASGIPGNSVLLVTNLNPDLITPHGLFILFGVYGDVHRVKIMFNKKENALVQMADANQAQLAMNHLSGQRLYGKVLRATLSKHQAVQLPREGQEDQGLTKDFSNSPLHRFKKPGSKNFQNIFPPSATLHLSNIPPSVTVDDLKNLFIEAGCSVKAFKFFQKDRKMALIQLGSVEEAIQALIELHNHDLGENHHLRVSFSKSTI

O=C(O)[C@H]1O[C@H](OP(=O)(O)OP(=O)(O)OC[C@H]2O[C@@H](n3ccc(=O)[nH]c3=O)[C@H](O)[C@@H]2O)[C@H](O)[C@@H](O)[C@@H]1O [UDP-GlcUA]
CETSA (cell lysate, immunoblot) and DARTS (pronase): PTBP3 protein stability is enhanced upon UDP‐GlcUA treatment, suggesting a potential direct binding
